| melting point [°C] | SMILES |
| --- | --- |
| 113 | Cn1c(=S)c(-c2cccs2)nc2ccccc21 |
| 164 | Nn1c(=O)c(-c2cccs2)nc2ccccc21 |
| 236 to 237 | CS(=O)(=O)NCCn1c(=O)c(-c2cccs2)nc2ccccc21 |

More lines, now with the values behind:

| SMILES | melting point [°C] |
| --- | --- |
| O=c1c(-c2cccs2)nc2ccccc2n1CC1CCCO1 (centres unmarked) | 123 |
| Cl.NCCn1c(=O)c(-c2cccs2)nc2ccccc21 | > 250 |
| Cn1c(=O)c(-c2ccccc2)nc2cc3c(cc21)OC(F)(F)O3 | 165 |
| O=c1[nH]c2cc3c(cc2nc1-c1ccccc1)OC(F)(F)O3 | 291 to 292 |
| O=c1c(-c2cccs2)nc2ccccc2n1CC1CCC1 | 103 |

Source: patent US20110143939A1, “QUINOXALIN-2-ONE DERIVATIVES, COMPOSITIONS WHICH PROTECT USEFUL PLANTS AND COMPRISE THESE DERIVATIVES, AND PROCESSES FOR THEIR PREPARATION AND THEIR USE” (Bayer CropScience AG, priority 2004, published 2011)
